Experiment [1] deals with T1, glycogen phosphorylase (GPPase) (Oryctolagus cuniculus, UniProt P00489).
T1 construct: gene PYGM
T1 sequence (P00489 2-843): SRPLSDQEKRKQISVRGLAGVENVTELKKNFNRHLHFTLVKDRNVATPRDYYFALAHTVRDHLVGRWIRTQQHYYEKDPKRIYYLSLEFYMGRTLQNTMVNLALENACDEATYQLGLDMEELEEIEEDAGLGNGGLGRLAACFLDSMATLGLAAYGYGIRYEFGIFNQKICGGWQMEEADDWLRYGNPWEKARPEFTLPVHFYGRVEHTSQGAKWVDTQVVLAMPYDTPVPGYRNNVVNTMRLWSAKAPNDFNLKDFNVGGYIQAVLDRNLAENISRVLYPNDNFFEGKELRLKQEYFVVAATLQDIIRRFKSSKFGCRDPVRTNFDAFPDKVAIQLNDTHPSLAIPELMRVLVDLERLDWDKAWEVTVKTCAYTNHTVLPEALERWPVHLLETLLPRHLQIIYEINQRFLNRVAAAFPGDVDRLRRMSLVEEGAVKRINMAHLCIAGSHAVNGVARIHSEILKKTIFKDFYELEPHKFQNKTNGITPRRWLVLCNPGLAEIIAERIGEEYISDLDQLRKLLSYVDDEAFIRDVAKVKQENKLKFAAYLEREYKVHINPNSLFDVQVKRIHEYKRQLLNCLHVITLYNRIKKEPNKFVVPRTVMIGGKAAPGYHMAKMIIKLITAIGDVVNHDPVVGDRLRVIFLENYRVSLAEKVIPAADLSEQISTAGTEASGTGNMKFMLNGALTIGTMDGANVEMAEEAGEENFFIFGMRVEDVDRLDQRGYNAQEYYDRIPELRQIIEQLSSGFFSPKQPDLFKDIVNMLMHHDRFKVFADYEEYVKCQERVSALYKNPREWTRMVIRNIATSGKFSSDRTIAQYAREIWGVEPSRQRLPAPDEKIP
Briefly: phosphoglucomutase/G6PDH-coupled spectrophotometric activity assay with glycogen; activation. In kind it is biochemical.

Experiment [2] addresses T2, fructose1,6-diphosphatase (FBPase).
T2 construct: gene FBP1
The experiment is described as follows: Malachite Green phosphate-release assay with D-fructose-1,6-diphosphate. The experiment is classed as biochemical.

For `Nc1ncnc2c1ncn2[C@@H]1O[C@H](COP(=O)(O)O)[C@@H](O)[C@H]1O` [AMP], it took 18.5 µM to reach a half-maximal effect in experiment [1] (EC50). The IC50 – broadly, the concentration needed to halve the response being measured – in experiment [2] turned out to be 1.6 µM.

The values above are taken from article PMC3398342, “Cyanidin-3-O-β-glucoside regulates fatty acid metabolism via an AMP-activated protein kinase-dependent signaling pathway in human HepG2 cells” (2012).
